Holding throughout (assay): NCI tumour cell line growth inhibition, 48 h
In experiment [1] the test system is SW-620 colon.
Experiment [2] relates to OVCAR-8 ovarian.
Experiment [3] concerns UACC-62 melanoma.
Experiment [4] deals with SF-295 CNS.
Experiment [5] concerns DU-145 prostate.
The subject of experiment [6] is NCI-H23 lung.
Experiment [7] relates to UACC-257 melanoma.
Experiment [8] has as its system MDA-MB-435.
The subject of experiment [9] is SF-268 CNS.
Experiment [10] relates to KM12 colon.

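Test compounds were applied to cells in 96-well plates for 48 hours at 5 doses. At the GI50, growth is halved. TGI: total growth inhibition.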 Where only a bound is given, the exact number is not on record here.

With `CC[C@@]12C=CCN3CC[C@]4(c5cc(NC(=O)COc6cc(OCC(=O)Nc7cc8c(cc7OC)N(C)[C@H]7[C@@](O)(C(=O)OC)[C@H](OC(C)=O)[C@]9(CC)C=CCN%10CC[C@]87[C@@H]%109)cc7oc(-c8ccccc8)cc(=O)c67)c(OC)cc5N(C)[C@@H]4[C@](O)(C(=O)OC)[C@H]1OC(C)=O)[C@H]32`, the GI50 in experiment [1] is 3.89 µM; in [2] it was 2.87 µM; in experiment [3], 20.1 µM; in [4] it was 3.05 µM; in [5] it was 4.46 µM; in experiment [6], 2.15 µM. Moreover, the GI50 in [7] is > 100 µM; in [8] it was 17.7 µM. Moreover, the TGI in [1] was 26.2 µM; in experiment [2] it was > 100 µM; in experiment [3], 64.6 µM; in [4], 11.9 µM; in [5] it was > 100 µM; in [6], 6.58 µM. Also, the TGI in [7] and in experiment [8] was > 100 µM each time.

Take `COc1c(Sc2ccccc2)cc(Sc2ccccc2)c2cccnc12`: the TGI in experiment [1] was > 100 µM; in experiment [2], > 100 µM; in experiment [9] it was > 100 µM; in experiment [3], 63.2 µM; in experiment [4], 78.6 µM; in experiment [6], 62.1 µM. The TGI in experiment [7] is 41.1 µM; in experiment [10], > 100 µM.

On to `CN1C(=O)C2C=CC1C1CCC2N(C)C1=O` (stereo not drawn), for which the TGI in experiment [1], in experiment [2], in [9], in experiment [3], in [4] and in experiment [6] was > 100 µM in each case. Besides, the TGI in experiment [7] and in experiment [10] was > 100 µM throughout.

`COC(=O)c1ccc(C(=O)OC)c2nc3cc(C)ccc3nc12`: the TGI in [1], in [2], in experiment [9], in experiment [3], in experiment [4] and in experiment [6] was > 100 µM each time. For the same molecule, the TGI in experiment [7] and in experiment [10] was > 100 µM each time.

`CCN(CC)CCOc1c(OC)c(Br)cc2c(C)c(C(=O)OC)oc12`: the GI50 in experiment [1] was 0.802 µM; in experiment [2], 2.13 µM; in experiment [9] it was 1.33 µM; in [3], 1.33 µM; in [4] it was 1.18 µM; in [6], 1.12 µM. Besides, the values for the GI50 in experiment [7], in experiment [10] and in [8] were 1.53 µM, 0.569 µM and 1.03 µM, respectively. For the same molecule, the TGI was 2.04 µM in experiment [1]; 7.88 µM in experiment [2]; 5.08 µM in [9]; 4.92 µM in experiment [3]; 2.99 µM in experiment [4]; 2.68 µM in experiment [6]. Moreover, the TGI worked out at 4.29 µM in [7], 1.98 µM in [10] and 2.62 µM in experiment [8].

In the case of `Cc1c(C(=O)CC(=O)C(=O)Nc2cc(Cl)ccc2Cl)[n+](=O)c2ccccc2n1[O-]`, the TGI in [1] is > 100 µM; in [2], > 100 µM; in experiment [9], > 100 µM; in [3] it was 40.2 µM; in experiment [4], > 100 µM; in experiment [6] it was > 100 µM. In addition, the TGI in [7] and in [10] was > 100 µM in each case.

Turning to `COC(=O)[C@H]1N[C@@H](C(=O)OC)C23CCC[C@H]2CC[C@]1(C(OC)OC)C3`, the TGI in experiment [1], in [2], in experiment [9], in [3], in [4] and in experiment [6] was > 100 µM each time. The TGI in experiment [7] and in experiment [10] was > 100 µM in each case.

Turning to `Clc1ccc2c(c1)[nH]c1c2nc2sccn21`, the TGI in [1], in experiment [2], in experiment [9], in experiment [3], in experiment [4] and in experiment [6] was > 100 µM in each case. Also, the TGI in experiment [7] and in experiment [10] was > 100 µM in each case.

In the case of `COC(=O)c1cc(-c2ccc(OC)cc2)[nH]c1N/N=C/c1c(Cl)cccc1Cl`, the GI50 in [1] is 0.26 µM; in experiment [2], 0.442 µM; in experiment [9] it was 0.203 µM; in experiment [3], 0.205 µM; in experiment [4], 0.124 µM; in experiment [5], 0.229 µM. Further, the GI50 in experiment [6] is 0.412 µM; in [7] it was 0.409 µM; in [10] it was 0.141 µM. Besides, the TGI was found to be 97.5 µM in [1]; 5.16 µM in [2]; 10.4 µM in experiment [9]; 16.8 µM in experiment [3]; 1.49 µM in [4]; 0.831 µM in [5]. Further, the TGI in experiment [6] came out at 14 µM; in [7], 9.17 µM; in experiment [10] it was 6.75 µM.

In the case of `NC(=O)c1csc(C2CCC(CO)O2)n1` (stereo not drawn), the TGI in experiment [1], in [2], in experiment [9], in experiment [3], in [4] and in experiment [6] was > 100 µM throughout. Moreover, the TGI in experiment [7] and in [10] was > 100 µM each time.

In the case of `CC[C@H](Nc1nc(N)nc(C2CC2)c1C#N)c1nc2cccc(NCc3ccc(C(=O)NO)cc3)c2c(=O)n1-c1ccccc1`, the GI50 was 1.73 µM in experiment [1]; 1.74 µM in [9]; 1.95 µM in [5]; 1.98 µM in experiment [6]; 2.05 µM in [7]; 2.07 µM in [10]. The TGI in experiment [1] worked out at 4.81 µM; in experiment [9], 4.12 µM; in [5] it was 4.56 µM; in [6], 4.48 µM; in experiment [7], 6.16 µM; in experiment [10], 4.69 µM.

As to `ClCc1ccc(C2OCCO2)cc1`, the TGI in experiment [1] was 34.4 µM; in experiment [2], 36.1 µM; in [9] it was > 100 µM; in [3], > 52 µM; in experiment [4], 35.5 µM; in [6], 17.2 µM. For the same molecule, the results for the TGI in experiment [7] and in experiment [10] were 31.6 µM and 18.4 µM, respectively.

Values taken from PubChem BioAssay (NCI).
